Data as given in patent publication US5011851A, “Imidazole carboxylic acids and esters and inhibition of blood platelet aggregation therewith” (Bristol-Myers Squibb Co., priority 1990, dated 1991).
≈ marks a conversion by molar mass, not a printed value. Like-named read-outs stand apart in the source and are kept apart here.

Tested on: ADP-induced aggregation of human platelets
Type: cell-based
Conditions: human platelet rich plasma, vs ADP, read-out: Inhibition of Human Platelet Aggregation IC50 Vs ADP
Experimental: IN VITRO INHIBITION OF HUMAN PLATELET AGGREGATION
The human volunteer donor's arm is cleansed with 70% ethyl alcohol. A sterile 20 ml syringe and needle are used to withdraw 20 ml of blood. The blood is immediately added to a test tube containing 3.8% sodium citrate to prevent clotting (1 part citrate to 9 parts blood).
Platelet rich plasma (PRP) was separated by centrifugation for 10 minutes at 1000 rpm (140 xg) from citrated (3.8%) human blood. All glassware used for preparation of PRP is silicon treated. ADP in final concentration of 0.5 meg/mL or 0.05 mL of a collagen suspension prepared according to the method described by Evans, G., et al., J. Exp. Med., 1968, 128, 877-894 was used to induce aggregation. The various compounds tested were dissolved in dimethylsulfoxide (DMSO) so that 5 mol added to the platelet rich plasma would yield the desired test concentration. Vehicle control trials were done and compared with aggregation induced in platelet rich plasma containing various concentrations of the test compounds. Dose response curves were obtained and Inhibitor Concentration (IC50) values calculated.

SMILES	IC50 (Formula VIII compounds)	IC50 (Formula II compounds)
O=C(O)COc1cccc(CSc2nc(-c3ccccc3)c(-c3ccccc3)[nH]2)c1 [Example 5, [3-[[(4,5-Diphenyl-1H-imidazol-2-yl)thio]methyl]phenoxy]acetic Acid]	0.41 µg/mL (≈ 0.984 µM)	–
O=C(O)COc1cccc(CCc2nc(-c3ccccc3)c(-c3ccccc3)[nH]2)c1 [Example 2, [3-[2-(4,5-diphenyl-1H-imidazol-2-yl)ethyl]phenoxy]-acetic acid]	–	1.2 µg/mL (≈ 3.01 µM)
COC(=O)COc1cccc(CSc2nc(-c3ccccc3)c(-c3ccccc3)[nH]2)c1 [Example 4, Methyl [3-[[(4,5-diphenyl-1H-imidazol-2-yl)thio]methyl]phenoxy]acetate]	0.42 µg/mL (≈ 0.976 µM)	–
COC(=O)COc1cccc(CCc2nc(-c3ccccc3)c(-c3ccccc3)[nH]2)c1 [Example 1, Methyl [3-[2-(4,5-diphenyl-1H-imidazol-2-yl)ethyl]phenoxy]-acetate]	–	2.4 µg/mL (≈ 5.82 µM)
